Data set [1] relates to HIV-1 primer rescue-related patient isolates 31, 32 and 35 (T69S+XX+TAMs). Kind of data set: PhenoSense HIV assay, Example 2c. Format: cell-based. As to the method: (§1) The susceptibility of the compounds of the invention, measured as the plasma metabolite 2′,3′-dideoxy, 3′-C-hydroxymethyl-β-D-erythropentofuranosylcytosine on HIV-1 isolates from patient plasma samples that bear typical TAM primer rescue mutant resistant genotypes is determined by the commercially available PhenoSense HIV assay (described in Petropoulos, C J et al., (2000) Antimicrob. Agents Chemother. 44:920-928 and performed by ViroLogics, Inc). The assay is performed by amplifying the protease (PR)—RT segment of the HIV pol gene from patient plasma and inserting the amplification products into a modified HIV-1 vector derived from an NL4-3 molecular clone.
(§2) Viral stocks are prepared by co-transfecting 293 cell cultures with recombinant viral DNA vector and an expression vector that produces the amphotropic murine leukemia virus envelope proteins. Pseudotyped virus particles are harvested from the transfected cell cultures and are used to infect fresh 293 cell cultures. The recombinant viral DNA contains a luciferase gene cassette within the HIV env gene region and the production of luciferase in target cells is dependent on the completion of one round of virus replication. Drug susceptibility is measured by adding serial concentrations of the compound of the invention and the reference compounds to the cells. Drugs that inhibit virus replication reduce luciferase signal in a dose-dependent manner, providing a quantitative measure of drug susceptibility.
Continuous challenge of patients with antiretroviral agents results in the emergence of MDR. A T69S mutation with a 6-bp insertion between amino acids 68 and 70 in the finger region of RT is often seen in combination with various forms of TAMs and contributes to an enhanced primer rescue activity. A cluster of MDR (with different forms of amino acid insertion(s)) in combination with TAM was chosen, as outlined in Table 3.

Data set [2] concerns HIV-1 primer rescue-related TAM patient isolates 20 and 21. Kind of data set: PhenoSense HIV assay, Example 2a. To be noted: for potency against patient virus compared to wildtype: isolates 20 and 21. Format: cell-based. As to the method: as §1, §2
Wild-type HIV virus is used as the reference. Here, the inhibition of the patient isolate 20 and 21 strains is expressed as the fold change in reduction of susceptibility to the treatment drug as compared to parallel runs of the reference. The following antiviral drugs were tested: AZT, 3TC, TNF, ABC, d4T, FTC and the compound of the invention, as the plasma metabolite 2′,3′-dideoxy, 3′-C-hydroxymethyl-β-D-erythropentofuranosylcytosine.

The test system of data set [3] is HIV-1 TAM primer rescue-related patient isolate 19 (M184V + TAMs). Kind of data set: PhenoSense HIV assay, Example 2b. The class given is cell-based. As to the method: as §1
as §2, with “The recombinant viral DNA contains a luciferase gene cassette within the HIV env gene region and the production of luciferase in target cells is dependent on the completion of one round of virus replication.” left out, “susceptibility. […]” for “susceptibility.”

The test system of data set [4] is TAM primer rescue-related resistant HIV-1 isolates in PBMC. Kind of data set: Drug susceptibility assay in PBMC culture (p24 antigen). The class given is cell-based. The protocol: The antiviral performance of the compound of the invention against additional TAM primer rescue-related resistant HIV isolates was assayed in a PBMC culture. Isolates of HIV-1 were generated and expanded to high titer by co-cultivation of infected patient PBMC with PHA-stimulated donor PBMC (Virology Manual for ACTG HIV Laboratories). The cell-free supernatants were harvested, sequenced, and stored in aliquots at −70° C. for drug susceptibility assays.
In vitro drug susceptibility assays were performed using a modified ACTG/DOD consensus method (Virology Manual for ACTG HIV laboratories). PBMCs were pre-infected with viral stocks for 4 hrs at 37° C. in a humidified atmosphere of 5% CO2 following 4 hr incubation. Infected cells were washed twice in media and pipetted into a microtiter plate with eight serial drug dilutions. Each well contained 100,000 pre-infected PBMC and all drug dilutions were made with cell culture medium. The drug dilutions were chosen to span the 50% inhibitory concentration (IC50) for each single drug. Control wells containing cells and virus were co-incubated on each plate. After a 7-day incubation at 37° C. in a […] atmosphere of 5% CO2, viral growth was determined using a p24 antigen assay on supernatants (Abbott Laboratories, Chicago, USA). The percent inhibition of viral growth compared to the control well, which contained no drug, was calculated and expressed as fold changes (reductions in compounds susceptibility) compared to the control well. The reference compound AZT was run in parallel with the compound of the invention.
A cluster of representative of primer rescue-related mutant virus was selected that harbors the essential feature of primer rescue-related TAM resistant RT mutations. Strains with mutations at position M41L, D67N, K70R, L210W, T215Y/F and K219Q/E in various combinations with or without discriminative mutant M184V were used as indicated in Table 4.

Data set [5] concerns HIV-1 isolate 4 (K65R+M184V discriminative mutant). Kind of data set: PhenoSense HIV assay, Example 2d. The class given is cell-based.
The conditions of data set [6]: reference compounds (markers) of the permeability assay; cited from earlier work.

Take `Nc1ccn([C@H]2C[C@H](CO)[C@@H](CO)O2)c(=O)n1` [2′,3′-dideoxy, 3′-C-hydroxymethyl-β-D-erythropentofuranosylcytosine]: the figures for the “fold change in susceptibility” value in data set [1] (isolate 32) and in data set [1] (isolate 35) were 2.79 fold and 4.29 fold, respectively. Also, in data set [1] (isolates 31, 32 and 35), the “change in drug susceptibility compared with six reference antivirals” value is on record as “smallest change in drug susceptibility”. Further, the “fold reduction in susceptibility vs wild-type HIV” value is given as 1.0 fold in data set [2] (isolate 20) and less than 1.0 fold in data set [2] (isolate 21). The “fold difference in susceptibility compared to wild type HIV” value in data set [3] stood at 1.78 fold. Besides, the “highest FC value over all 8 isolates” value in data set [4] (all 8 isolates of Table 4) is recorded as no more than 2.7. For the same compound, the “FC value (fold change in susceptibility)” value in data set [5] was found to be 3.88.

Take `Nc1nc(NC2CC2)c2ncn([C@H]3C=C[C@@H](CO)C3)c2n1` [ABC, abacavir]: the “potency against patient virus compared to wildtype” value (“potency … compared to wildtype” below) in data set [2] is “lost potency”. The “FC value (fold change in susceptibility)” value in data set [5] was greater than 9.0.

Regarding `Cc1cn([C@H]2C[C@H](N=[N+]=[N-])[C@@H](CO)O2)c(=O)[nH]c1=O` [AZT, zidovudine], the “fold reduction in susceptibility vs wild-type HIV” value in data set [2] (isolates 20 and 21, isolate not specified) is listed as 451 fold. In data set [3], the “activity against the resistant virus” value was “lost activity”. In addition, the FC value in data set [4] (isolate 7086 (T215V)) is on record as 3.0. Further, the “drop in FC value” in data set [4] (most of the selected primer rescue mutants) is reported as “a couple of hundred folds”. The “FC value (fold change in susceptibility)” value in data set [5] stood at 1.11.

As to `Nc1ccn([C@@H]2CS[C@H](CO)O2)c(=O)n1` [Example 3TC, lamivudine], in data set [5], the “FC value (fold change in susceptibility)” value is recorded as greater than 200.

For the compound `Nc1nc(=O)n([C@@H]2CS[C@H](CO)O2)cc1F` [FTC, emtricitabine], in data set [2], the “potency … compared to wildtype” value is given as “lost potency”. The “FC value (fold change in susceptibility)” value in data set [5] was greater than 40.

Regarding `N[C@@H](Cc1ccccc1)C(=O)O` [L-Phenylalanine], in data set [6], the “% absorption in man” value was 100%.

With `OC[C@@H](O)[C@@H](O)[C@H](O)[C@H](O)CO` [Mannitol], the “% absorption in man” value in data set [6] was 16%.

As to `CN(Cc1cnc2nc(N)nc(N)c2n1)c1ccc(C(=O)N[C@@H](CCC(=O)O)C(=O)O)cc1` [Methotrexate], the “% absorption in man” value in data set [6] was 20%.

In the case of `C[C@H](Cn1cnc2c(N)ncnc21)OCP(=O)(O)O` [TFN, tenofovir], the “potency … compared to wildtype” value in data set [2] is given as “lost potency”.

Regarding `Cc1cn([C@H]2C=C[C@@H](CO)O2)c(=O)[nH]c1=O` [d4T, stavudine], the “potency … compared to wildtype” value in data set [2] was “lost potency”. In data set [5], the “FC value (fold change in susceptibility)” value is reported as 0.71.
